{"source": "patent US20230416294A1", "about": "“DECITABINE ANALOGS FOR IMMUNOLOGICAL AND ONCOLOGICAL THERAPY” (The Johns Hopkins University, priority 2020, published 2023)", "key": {"cytidine deaminase (CDA)": {"molecular_target": "cytidine deaminase (CDA) (Homo sapiens, UniProt P32320)", "sequence (P32320 whole entry, species assumed)": "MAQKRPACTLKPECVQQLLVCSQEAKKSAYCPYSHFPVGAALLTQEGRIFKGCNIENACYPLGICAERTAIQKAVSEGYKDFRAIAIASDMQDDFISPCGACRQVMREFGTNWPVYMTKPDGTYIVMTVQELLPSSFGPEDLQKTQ", "assay": "stability to cytidine deaminase (CDA)", "format": "in vitro ADME"}, "[1]": {"tested_on": "Regulatory T cell (Tregs)", "assay": "Treg functional assay for efficacy", "format": "cell-based, Murine", "conditions": "dose response", "procedure": "A functional assay was developed to identify a compound that can augment Regulatory T cell (Tregs) suppressive function. Tregs are the major regulators of the immune systems and are paramount in transplant tolerance and in autoimmune and inflammatory diseases. Current hypomethylating drugs such as decitabine (DAC) can augment Treg function, but carry significant side effects and cytotoxicity. Murine Tregs were isolated from spleens using magnetic beads (Miltenyi). […] Tregs were cultured for 48 hrs in the presence of anti-CD3, anti CD28 and IL-2+/−equimolar concentrations decitabine and analogs. After 48 hrs, Tregs were analyzed for suppressive phenotype using Foxp3 expression (master transcription factor) and relative proliferation (Ki-67 expression)."}, "Mouse CD4+ T cells": {"tested_on": "Mouse CD4+ T cells", "assay": "regulatory T cell phenotype and function in cultured CD4+ T cells", "format": "cell-based", "conditions": "Mouse CD4+ T cells cultured for 3 days +/−DAC or MK-923", "procedure": "Mouse CD4+ T cells were cultured for 3 days +/−DAC or MK-923;"}, "DU145 cancer cells": {"tested_on": "DU145 cancer cells", "assay": "DAC incorporation into genomic DNA and DNA demethylation in DU145 cells", "format": "cell-based", "conditions": "DU145 cancer cells treated with a dose response of MK-923", "procedure": "DU145 cancer cells were treated with a dose response of MK-923, and the degree of 5-aza-2′deoxycytidine (DAC) (Blue line, left axis), and DNA demethylation (orange line, right axis), was measured."}, "[2]": {"assay": "toxicity of nebulized compound versus DAC", "format": "in vivo"}, "[3]": {"tested_on": "bacterial-induced lung injury", "assay": "bacterial-induced lung injury model, nebulized compound", "format": "in vivo", "conditions": "(1 mg/kg DAC)"}, "[4]": {"assay": "lung delivery versus plasma after nebulization in LPS lung injury model", "format": "in vivo", "conditions": "inhaled, nebulized, read-out: enhanced lung delivery versus plasma"}, "[5]": {"tested_on": "acute lung injury induced by lipopolysaccharide (LPS)", "conditions": "in vivo"}, "influenza": {"tested_on": "influenza", "assay": "influenza model", "conditions": "in vivo"}, "lung allograft rejection": {"tested_on": "lung allograft rejection", "assay": "lung allograft rejection", "conditions": "in vivo"}, "[6]": {"tested_on": "eosinophilic inflammation", "assay": "asthma model", "conditions": "in vivo"}}, "note": "Read-outs that look alike come from different tables or passages of the source.", "data": [{"compound": "CN(C)/C=N\\c1ncn([C@H]2C[C@H](O)[C@@H](CO)O2)c(=O)n1", "note": "[MK-890, N^4-Dimethylaminomethylene derivative]", "values": [{"measurement": "stability to cytidine deaminase (CDA)", "setting": "cytidine deaminase (CDA); +/−tetrahydrouridine", "result": "stable"}]}, {"compound": "O=c1nc(/N=C/N2CCCC2)ncn1[C@H]1C[C@H](O)[C@@H](CO)O1", "note": "[MK-911]", "values": [{"measurement": "stability to cytidine deaminase (CDA)", "setting": "cytidine deaminase (CDA)", "result": "stable"}, {"measurement": "increase in Tregs", "setting": "[1]", "result": "dose-dependent increase"}]}, {"compound": "CN1CCC/C1=N/c1ncn([C@H]2C[C@H](O)[C@@H](CO)O2)c(=O)n1", "note": "[MK-923]", "values": [{"measurement": "enhancing regulatory T cell (Tregs) phenotype and function", "setting": "Mouse CD4+ T cells", "result": "equipotent"}, {"measurement": "5-aza-2′deoxycytidine (DAC) incorporation into genomic DNA", "setting": "DU145 cancer cells", "result": "dose responsive increase"}, {"measurement": "DNA Cytosine methylation", "setting": "DU145 cancer cells", "result": "decrease"}, {"measurement": "toxicity versus DAC", "setting": "[2]", "result": "improved toxicity versus DAC"}, {"measurement": "efficacy in bacterial-induced lung injury", "setting": "[3]", "result": "rescues bacterial-induced lung injury"}, {"measurement": "hematological toxicity", "setting": "[3]", "result": "reduced hematological toxicity"}, {"measurement": "Kp", "setting": "[4]", "result": 6}, {"measurement": "therapeutic index versus DAC", "setting": "[5]", "result": "enhanced therapeutic index versus DAC"}, {"measurement": "toxicity in LPS lung injury model", "setting": "[5]", "result": "without overt toxicity"}]}, {"compound": "Nc1ncn([C@H]2C[C@H](O)[C@@H](CO)O2)c(=O)n1", "note": "[decitabine, 5-aza-2′-deoxycytidine]", "values": [{"measurement": "increase in Tregs", "setting": "[1]", "result": "dose-dependent increase"}, {"measurement": "enhancing regulatory T cell (Tregs) phenotype and function", "setting": "Mouse CD4+ T cells", "result": "equipotent"}, {"measurement": "ongoing inflammation in an influenza model", "setting": "influenza", "result": "rescues ongoing inflammation"}, {"measurement": "lung allograft rejection", "setting": "lung allograft rejection", "result": "improves lung allograft rejection"}, {"measurement": "eosinophilic inflammation in an asthma model", "setting": "[6]", "result": "potently abrogates eosinophilic inflammation"}]}]}
